Data taken from patent publication EP0694535A1, “Non-peptidyl tachykinin receptor antagonists” (ELI LILLY AND COMPANY, priority 1994, dated 1996).

Experiments:
human NK-2 receptor = target: T1, human NK-2 receptor (Homo sapiens, UniProt P21452); experiment: NK-2 Receptor Binding Assay (CHO-hNK-2R membranes, iodohistidyl-neurokinin A); details: for inhibition at 10 µM: inhibition of neurokinin A binding at ten micromolar, read-out: Percent Inhibition @ 10 μM
T1 construct: expressed in transfected cells; host or cells: CHO-hNK-2R cells (CHO-derived), membrane preparation
T1 sequence (P21452 1-398): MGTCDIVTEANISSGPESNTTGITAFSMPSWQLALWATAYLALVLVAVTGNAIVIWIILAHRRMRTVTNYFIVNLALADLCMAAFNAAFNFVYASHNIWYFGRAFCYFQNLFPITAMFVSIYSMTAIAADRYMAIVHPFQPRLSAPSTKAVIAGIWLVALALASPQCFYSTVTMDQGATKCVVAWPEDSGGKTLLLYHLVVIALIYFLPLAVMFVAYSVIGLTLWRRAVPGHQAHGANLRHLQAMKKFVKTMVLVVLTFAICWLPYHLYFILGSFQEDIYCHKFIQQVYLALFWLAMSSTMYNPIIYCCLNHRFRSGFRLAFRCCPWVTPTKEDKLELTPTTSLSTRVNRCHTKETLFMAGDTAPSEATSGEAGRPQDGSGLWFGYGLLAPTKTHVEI
Description: The CHO-hNK-2R cells, a CHO-derived cell line transformed with the human NK-2 receptor, expressing about 400,000 such receptors per cell, were grown in 75 cm flasks or roller bottles in minimal essential medium (alpha modification) with 10% fetal bovine serum. The gene sequence of the human NK-2 receptor is given in N.P. Gerard, et al., Journal of Biological Chemistry, 265:20455-20462 (1990).
For preparation of membranes, 30 confluent roller bottle cultures were dissociated by washing each roller bottle with 10 ml of Dulbecco's phosphate buffered saline (PBS) without calcium and magnesium, followed by addition of 10 ml of enzyme-free cell dissociation solution (PBS-based, from Specialty Media, Inc.). After an additional 15 minutes, the dissociated cells were pooled and centrifuged at 1,000 RPM for 10 minutes in a clinical centrifuge. Membranes were prepared by homogenization of the cell pellets in 300 ml 50 mM Tris buffer, pH 7.4 with a Tekmar® homogenizer for 10-15 seconds, followed by centrifugation at 12,000 RPM (20,000 x g) for 30 minutes using a Beckman JA-14® rotor. The pellets were washed once using the above procedure. and the final pellets were resuspended in 100-120 ml 50 mM Tris buffer, pH 7.4, and 4 ml aliquots stored frozen at -70 °C. The protein concentration of this preparation was 2 mg/ml.
For the receptor binding assay, one 4-ml aliquot of the CHO-hNK-2R membrane preparation was suspended in 40 ml of assay buffer containing 50 mM Tris, pH 7.4, 3 mM manganese chloride, 0.02% bovine serum albumin (BSA) and 4 µg/ml chymostatin. A 200 µl volume of the homogenate (40 µg protein) was used per sample. The radioactive ligand was [[…]]iodohistidyl-neurokinin A (New England Nuclear, NEX-252), 2200 Ci/mmol. The ligand was prepared in assay buffer at 20 nCi per 100 µl; the final concentration in the assay was 20 pM. Non-specific binding was determined using 1 µM eledoisin. Ten concentrations of eledoisin from 0.1 to 1000 nM were used for a standard concentration-response curve.
All samples and standards were added to the incubation in 10 µl dimethylsulfoxide (DMSO) for screening (single dose) or in 5 µl DMSO for IC₅₀ determinations. The order of additions for incubation was 190 or 195 µl assay buffer, 200 µl homogenate, 10 or 5 µl sample in DMSO, 100 µl radioactive ligand. The samples were incubated 1 hr at room temperature and then filtered on a cell harvester through filters which had been presoaked for two hours in 50 mM Tris buffer, pH 7.7, containing 0.5% BSA. The filter was washed 3 times with approximately 3 ml of cold 50 mM Tris buffer, pH 7.7. The filter circles were then punched into 12 x 75 mm polystyrene tubes and counted in a gamma counter.
Table II, infra, provides a representative sample of the effectiveness as NK-2 receptor antagonists of many of the compounds of Formula I. The first column provides the Example number of the compound tested. The second column provides either the percent inhibition of neurokinin A binding when the compound is present in a ten micromolar concentration or the amount of compound (in micromolar amounts) necessary to inhibit fifty percent of the binding of neurokinin A. Those values which represent IC₅₀ values are designated by parentheses.

NK-1 receptor = target: T2, NK-1 receptor (Homo sapiens, UniProt P25103); experiment: NK-1 Receptor Binding Assay (competition with labeled substance P on IM9 cells); details: for inhibition at 10 µM: inhibition of substance P binding to the NK-1 receptor, read-out: Percent Inhibition; for IC50: concentration which inhibits fifty percent of the binding of substance P, 20 pM labeled substance P, 45 minutes at 4°C
T2 construct: an aliquot of IM9 cells; endogenous in cells; host or cells: IM9 cells (whole cells)
Description: Radioreceptor binding assays were performed using a derivative of a previously published protocol. D.G. Payan, et al., Journal of Immunology, 133:3260-3265 (1984). In this assay an aliquot of IM9 cells (1 x 10⁶ cells/tube in […] medium supplemented with 10% fetal calf serum) was incubated with 20 pM […] substance P in the presence of increasing competitor concentrations for 45 minutes at 4°C.
The IM9 cell line is a well-characterized cell line which is readily available to the public. See. e.g., Annals of the New York Academy of Science, 190: 221-234 (1972); Nature (London), 251:443-444 (1974); Proceedings of the National Academy of Sciences (USA), 71:84-88 (1974). These cells were routinely cultured in RPMI 1640 supplemented with 50 µg/ml gentamicin sulfate and 10% fetal calf serum.
The reaction was terminated by filtration through a glass fiber filter harvesting system using filters previously soaked for 20 minutes in 0.1% polyethylenimine. Specific binding of labeled substance P was determined in the presence of 20 nM unlabeled ligand.
Column 1 provides the example number of the test antagonist compound. The next columns detail the substitution patterns of the test compound.

T2 sequence (P25103 whole entry): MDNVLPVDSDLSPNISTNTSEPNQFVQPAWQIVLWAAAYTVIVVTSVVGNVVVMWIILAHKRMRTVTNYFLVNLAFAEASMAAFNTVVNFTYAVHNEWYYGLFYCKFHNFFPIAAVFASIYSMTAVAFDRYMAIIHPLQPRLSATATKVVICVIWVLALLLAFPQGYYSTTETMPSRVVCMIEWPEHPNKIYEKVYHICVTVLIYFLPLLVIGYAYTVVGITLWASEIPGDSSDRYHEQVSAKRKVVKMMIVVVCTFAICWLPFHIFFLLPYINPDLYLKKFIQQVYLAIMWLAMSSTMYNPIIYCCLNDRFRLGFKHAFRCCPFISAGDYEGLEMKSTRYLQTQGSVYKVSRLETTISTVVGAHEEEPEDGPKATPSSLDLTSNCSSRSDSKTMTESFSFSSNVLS

| Compound | inhibition at 10 µM (human NK-2 receptor) | inhibition at 10 µM (NK-1 receptor) | IC50 (NK-1 receptor) | IC50 (human NK-2 receptor; values in parentheses, amount necessary to inhibit fifty percent of the binding of neurokinin A) |
| --- | --- | --- | --- | --- |
| Cc1cccc(-c2nc3ccccc3n2Cc2ccc(Cl)cc2)c1 [Example 58, 1-(4-Chlorobenzyl)-2-(3-methylphenyl)benzimidazole] | 42.9% | 29% | – | – |
| COc1cc(-c2nc3ccccc3n2Cc2c(Cl)cccc2Cl)cc(OC)c1OC [Example 52, 1-(2,6-dichlorobenzyl)-2-(3,4,5-trimethoxyphenyl)-benzimidazole] | -7.1% | 20% | – | – |
| Cc1cccc(-c2nc3ccccc3n2Cc2ccc(Cl)c(Cl)c2)c1 [Example 64, 1-(3,4-Dichlorobenzyl)-2-(3-methylphenyl)benzimidazole] | 58.7% | 41% | – | – |
| COc1cc(-c2nc3ccc(OCCN4CCCCC4)cc3n2Cc2ccccc2)cc(OC)c1OC [Example 71, 1-benzyl-2-(3,4,5-trimethoxyphenyl)-6-[2-(1-piperidinyl)ethoxy]benzimidazole] | 70.1% | – | 0.06 µM | – |
| Cc1cccc(-c2nc3ccccc3n2Cc2ccccc2Cl)c1 [Example 56, 1-(2-chlorobenzyl)-2-(3-methylphenyl)-benzimidazole] | 63.7% | 71% | – | – |
| COc1cc(-c2nc3ccccc3n2Cc2ccc(Cl)cc2)cc(OC)c1OC [Example 42, 1-(4-chlorobenzyl)-2-(3,4,5-trimethoxyphenyl)-benzimidazole] | 2.6% | 61% | – | – |
| COc1cc(-c2nc3ccccc3n2Cc2ccccc2I)cc(OC)c1OC [Example 50, 1-(2-iodobenzyl)-2-(3,4,5-trimethoxyphenyl)-benzimidazole] | 87.4% | – | 0.823 µM | – |
| COc1cc(-c2nc3ccc(OCCN4CCOCC4)cc3n2Cc2ccccc2)cc(OC)c1OC [Example 70, 1-benzyl-2-(3,4,5-trimethoxyphenyl)-6-[2-(4-morpholinyl)ethoxy]benzimidazole] | 63.7% | – | 0.085 µM | – |
| Cc1cccc(-c2nc3ccccc3n2Cc2c(Cl)cccc2Cl)c1 [Example 62, 1-(2,6-Dichlorobenzyl)-2-(3-methylphenyl)benzimidazole] | 23.1% | 31% | – | – |
| COc1cc(-c2nc3ccccc3n2Cc2ccc(C)cc2)cc(OC)c1OC [Example 55, 1-(4-methylbenzyl)-2-(3,4,5-trimethoxyphenyl)-benzimidazole] | 21.9% | 53% | – | – |
| COc1ccccc1Cn1c(-c2cc(OC)c(OC)c(OC)c2)nc2ccccc21 [Example 47, 1-(2-methoxybenzyl)-2-(3,4,5-trimethoxyphenyl)-benzimidazole] | 67.7% | – | 0.449 µM | – |
| COc1cc(-c2nc3ccc(OCCN4CCC(N5CCCCC5)CC4)cc3n2Cc2ccccc2)cc(OC)c1OC [Example 77, 1-benzyl-2-(3,4,5-trimethoxyphenyl)-6-[2-[4-(piperidin-1-yl)piperdin-1-yl]ethoxy]benzimidazole] | – | – | 0.123 µM | 6.25 µM |
| COc1cc(-c2nc3ccc(OCCN4CCCCCC4)cc3n2Cc2ccccc2)cc(OC)c1OC [Example 73, 1-benzyl-2-(3,4,5-trimethoxyphenyl)-6-[2-(1-hexamethyleneiminyl)ethoxy]benzimidazole] | 83.5% | – | 0.052 µM | – |
| COc1cccc(Cn2c(-c3cc(OC)c(OC)c(OC)c3)nc3ccccc32)c1 [Example 45, 1-(3-methoxybenzyl)-2-(3,4,5-trimethoxyphenyl)-benzimidazole] | 23.2% | 81% | – | – |
| Cc1cccc(-c2nc3ccccc3n2Cc2ccccc2I)c1 [Example 61, 1-(2-Iodobenzyl)-2-(3-methylphenyl)benzimidazole] | 60.1% | 66% | – | – |
| COc1cc(-c2nc3ccccc3n2Cc2ccccc2Br)cc(OC)c1OC [Example 51, 1-(2-bromobenzyl)-2-(3,4,5-trimethoxyphenyl)-benzimidazole] | 84.8% | – | 0.591 µM | – |
| COc1cc(-c2nc3ccc(OCCCCl)cc3n2Cc2ccccc2)cc(OC)c1OC [Example 75, 1-benzyl-2-(3,4,5-trimethoxyphenyl)-6-(3-chloropropoxy)benzimidazole] | 86.3% | – | 0.814 µM | – |
| COc1cc(-c2nc3ccccc3n2Cc2ccccc2F)cc(OC)c1OC [Example 48, 1-(2-fluorobenzyl)-2-(3,4,5-trimethoxyphenyl)-benzimidazole] | 44.2% | – | 1.39 µM | – |
| COc1cc(-c2nc3ccc(OCCCN4CCCCC4)cc3n2Cc2ccccc2)cc(OC)c1OC [Example 74, 1-benzyl-2-(3,4,5-trimethoxyphenyl)-6-[3-(1-piperidinyl)propoxy]benzimidazole] | 78% | – | 0.085 µM | – |
| Cc1cccc(-c2nc3ccc(OCCN4CCCCC4)cc3n2Cc2ccccc2)c1 [Example 85, 1-benzyl-2-(3-methylphenyl)-6-[2-(1-piperidinyl)ethoxy]benzimidazole] | 73.1% | – | 0.753 µM | – |
| Cc1cccc(-c2nc3ccccc3n2Cc2ccccc2Br)c1 [Example 60, 1-(2-Bromobenzyl)-2-(3-methylphenyl)benzimidazole] | 62.6% | 72% | – | – |
| COc1cc(-c2nc3ccccc3n2Cc2cccc(C)c2)cc(OC)c1OC [Example 44, 1-(3-methylbenzyl)-2-(3,4,5-trimethoxyphenyl)-benzimidazole] | 52.9% | – | 2.05 µM | – |
| COc1cc(-c2nc3ccccc3n2Cc2ccccc2C(F)(F)F)cc(OC)c1OC [Example 49, 1-(2-trifluoromethylbenzyl)-2-(3,4,5-trimethoxyphenyl)-benzimidazole] | 82% | – | 0.721 µM | – |
| COc1cc(-c2nc3ccc(OCCN4CCCC4)cc3n2Cc2ccccc2)cc(OC)c1OC [Example 72, 1-benzyl-2-(3,4,5-trimethoxyphenyl)-6-[2-(1-pyrroldinyl)ethoxy]benzimidazole] | 53.8% | – | 0.074 µM | – |
| COc1cc(-c2nc3ccccc3n2Cc2ccc(Cl)c(Cl)c2)cc(OC)c1OC [Example 53, 1-(3,4-dichlorobenzyl)-2-(3,4,5-trimethoxyphenyl)-benzimidazole] | 33.4% | 45% | – | – |
